Reference: patent US20160145244A1, “CERTAIN PROTEIN KINASE INHIBITORS” (FOCHON PHARMA, INC., priority 2014, published 2016)

Columns and labels:
NCI-H3122 cells = assay: Cell proliferation assay, NCI-H3122 cells (SRB); type: cell-based; conditions: Homo sapiens, 72 h exposure
Experimental: (§1) NCI-H3122 or SUP-M2 Cells were plated into 96-well plates (3000-8000/well) in complete medium. After incubation overnight, cells were exposed to various concentrations of compound for further 72 h. Cell proliferation was evaluated by SRB assay (for NCI-H3122 cell) or Cell Counting Kit-8 assay (CCK-8, DOJINDO Molecular Technologies, Inc.) (for SUP-M2 cell). ICso values were calculated by concentration-response curve fitting using a SoftMax pro-based four-parameter method. Each IC50 value was expressed as mean±SD from three separate experiments.

SUP-M2 cells = assay: Cell proliferation assay, SUP-M2 cells (CCK-8); type: cell-based; conditions: 72 h exposure, Cell Counting Kit-8 assay
Experimental: as §1

SMILES	IC50 (NCI-H3122 cells)	IC50 (SUP-M2 cells)
Cc1cc(Nc2ncnc(Nc3ccccc3S(=O)(=O)C(C)C)n2)c2c(c1C1CCN(CCS(C)(=O)=O)CC1)C[C@@H](C)O2 [Example 8, (R)—N^2-(2,5-dimethyl-4-(1-(2-(methylsulfonyl)ethyl)piperidin-4-yl)-2,3-dihydrobenzofuran-7-yl)-N^4-(2-(isopropylsulfonyl)phenyl)-1,3,5-triazine-2,4-diamine]	–	111 to 333 nM
Cc1cc(Nc2ncnc(Nc3ccccc3S(=O)(=O)C(C)C)n2)c2c(c1C1CCN(S(C)(=O)=O)CC1)C[C@@H](C)O2 [Example 4, (R)—N^2-(2,5-dimethyl-4-(1-(methylsulfonyl)piperidin-4-yl)-2,3-dihydrobenzofuran-7-yl)-N^4-(2-(isopropylsulfonyl)phenyl)-1,3,5-triazine-2,4-diamine]	–	111 to 333 nM
CCOC(=O)CN1CCC(c2c(C)cc(Nc3ncnc(Nc4ccccc4S(=O)(=O)C(C)C)n3)c3c2C[C@@H](C)O3)CC1 [Example 6, Ethyl (R)-2-(4-(7-((4-((2-(isopropylsulfonyl)phenyl)amino)-1,3,5-triazin-2-yl)amino)-2,5-dimethyl-2,3-dihydrobenzofuran-4-yl)piperidin-1-yl)acetate]	–	111 to 333 nM
Cc1cc(Nc2ncnc(Nc3ccccc3S(=O)(=O)C(C)C)n2)c2c(c1C1CCN(CC(=O)N(C)C)CC1)C[C@@H](C)O2 [Example 7, (R)-2-(4-(7-((4-((2-(isopropylsulfonyl)phenyl)amino)-1,3,5-triazin-2-yl)amino)-2,5-dimethyl-2,3-dihydrobenzofuran-4-yl)piperidin-1-yl)-N,N-dimethylacetamide]	–	111 to 333 nM
CC(=O)N1CCC(c2c(C)cc(Nc3ncnc(Nc4ccccc4S(=O)(=O)C(C)C)n3)c3c2C[C@@H](C)O3)CC1 [Example 3, (R)-1-(4-(7-((4-((2-(isopropylsulfonyl)phenyl)amino)-1,3,5-triazin-2-yl)amino)-2,5-dimethyl-2,3-dihydrobenzofuran-4-yl)piperidin-1-yl)ethan-1-one]	14.4 nM	50.4 nM

The next lines start with results.

IC50 (NCI-H3122 cells)	SMILES	IC50 (SUP-M2 cells)
57.7 nM	Cc1cc(Nc2ncnc(Nc3ccccc3S(=O)(=O)C(C)C)n2)c2c(c1C1CCN(CCO)CC1)C[C@@H](C)O2 [Example 5, (R)-2-(4-(7-((4-((2-(isopropylsulfonyl)phenyl)amino)-1,3,5-triazin-2-yl)amino)-2,5-dimethyl-2,3-dihydrobenzofuran-4-yl)piperidin-1-yl)ethan-1-ol]	70 nM
20.8 nM	Cc1cc(Nc2ncnc(Nc3ccccc3S(=O)(=O)C(C)C)n2)c2c(c1C1CCN(C)CC1)C[C@@H](C)O2 [Example 2, (R)—N^2-(2,5-dimethyl-4-(1-methylpiperidin-4-yl)-2,3-dihydrobenzofuran-7-yl)-N^4-(2-(isopropyl-sulfonyl)phenyl)-1,3,5-triazine-2,4-diamine]	54.4 nM
15.9 nM	Cc1cc(Nc2ncnc(Nc3ccccc3S(=O)(=O)C(C)C)n2)c2c(c1C1CCN(C(=O)CO)CC1)C[C@@H](C)O2 [Example 9, (R)-2-hydroxy-1-(4-(7-((4-((2-(isopropylsulfonyl)phenyl)amino)-1,3,5-triazin-2-yl)amino)-2,5-dimethyl-2,3-dihydrobenzofuran-4-yl)piperidin-1-yl)ethan-1-one]	33.7 nM
134 nM	Cc1cc(Nc2ncnc(Nc3ccccc3S(=O)(=O)C(C)C)n2)c2c(c1C1CCN(C(=O)CN)CC1)C[C@@H](C)O2 [Example 10, (R)-2-amino-1-(4-(7-((4-((2-(isopropylsulfonyl)phenyl)amino)-1,3,5-triazin-2-yl)amino)-2,5-dimethyl-2,3-dihydrobenzofuran-4-yl)piperidin-1-yl)ethan-1-one]	79.6 nM
52.6 nM	Cc1cc(Nc2ncnc(Nc3ccccc3S(=O)(=O)C(C)C)n2)c2c(c1C1CCNCC1)C[C@@H](C)O2 [Example 1, (R)—N^2-(2,5-dimethyl-4-(piperidin-4-yl)-2,3-dihydrobenzofuran-7-yl)-N^4-(2-(isopropylsulfonyl)phenyl)-1,3,5-triazine-2,4-diamine]	99.3 nM
25.7 nM	Cc1cc(Nc2ncnc(Nc3ccccc3S(=O)(=O)C(C)C)n2)c2c(c1C1CCN(C(=O)[C@H](C)N)CC1)C[C@@H](C)O2 [Example 11, (S)-2-amino-1-(4-((R)-7-((4-((2-(isopropylsulfonyl)phenyl)amino)-1,3,5-triazin-2-yl)amino)-2,5-dimethyl-2,3-dihydrobenzofuran-4-yl)piperidin-1-yl)propan-1-one]	67.1 nM
